This note sets out measurements from paper PMC2892826 (Cell cycle (Georgetown, Tex.), 2009).

Read-outs that look alike come from different tables or passages of the source.

Assay [1] deals with MCF-7 human breast tumors. Nature of the assay: MCF-7 xenograft in nude mice. Format: in vivo. The conditions noted are these: MCF-7 s.c. xenograft, 1 mpk i.p. 2x weekly.
Assay [2] addresses T1, CT-L activity of the proteasome in primary multiple myeloma cells (Homo sapiens, UniProt P20618+P28074).
T1 sequence (P28074 60-263): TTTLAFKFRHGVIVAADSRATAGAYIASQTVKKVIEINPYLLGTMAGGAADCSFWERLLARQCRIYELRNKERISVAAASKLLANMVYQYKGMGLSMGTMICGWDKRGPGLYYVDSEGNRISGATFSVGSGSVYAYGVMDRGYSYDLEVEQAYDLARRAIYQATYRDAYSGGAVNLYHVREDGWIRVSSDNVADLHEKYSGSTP
T1 sequence (P20618 29-241): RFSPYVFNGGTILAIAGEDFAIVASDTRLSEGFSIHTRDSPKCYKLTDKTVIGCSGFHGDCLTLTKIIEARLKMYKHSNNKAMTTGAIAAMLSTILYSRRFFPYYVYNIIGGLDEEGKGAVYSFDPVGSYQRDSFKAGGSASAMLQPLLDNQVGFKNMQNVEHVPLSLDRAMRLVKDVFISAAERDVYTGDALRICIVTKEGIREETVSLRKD
The experiment in a line: CT-L activity in primary MM cells from patients' bone marrow. It counts as cell-based. The following applies: read-out: IC50 CT-L Activity.

Assay [3] has as its target tumor CT-L activity of the proteasome (Homo sapiens, UniProt P20618+P28074). The experiment in a line: Proteasome activity in A549 tumor lysates after in vivo treatment, CT-L. On the set-up: species or system nude mice. The conditions noted are these: A549 tumors, 1 mpk i.p., 2 h after last injection.

`O=C1C(Cl)=C(Nc2ccc(S(=O)(=O)Nc3ccccn3)cc2)C(=O)c2ccccc21` [PI-083] returned a tumor growth inhibition in assay [1] of 84%. The average tumor size entry in assay [1] (start ~200 mm^3, 16 days) is given as “about 396 ± 137 mm^3”. In addition, the IC50 turned out to be 1400 nM in assay [2] (patient 3, 24 h); 1200 nM in assay [2] (patient 6, 24 h); 1800 nM in assay [2] (patient 9, 24 h). In assay [3], the “inhibition of tumor CT-L activity vs vehicle-treated controls” value was found to be 43%.

What is called IC50 is the midpoint of a concentration-inhibition curve.
